In ChEMBL document CHEMBL1134224, “Synthetic analogues of SB-219383. Novel C-glycosyl peptides as inhibitors of tyrosyl tRNA synthetase” (Bioorg Med Chem Lett, 2001):

Key:
[1] = test system: Tyrosine--tRNA ligase (Staphylococcus aureus); experiment: Inhibitory activity (3 uM) against Staphylococcus aureus tyrosyl tRNA synthetase (YRS) using aminoacylation assay; No inhibition
[2] = target: Tyrosine--tRNA ligase (Staphylococcus aureus); experiment: Inhibitory activity against Staphylococcus aureus tyrosyl tRNA synthetase (YRS) using aminoacylation assay

SMILES | IC50 [1] | IC50 [2] [nM]
N[C@@H](Cc1ccc(O)cc1)C(=O)N[C@@H](C(=O)O)[C@H]1OC[C@@H](O)[C@@H](O)[C@@H]1O | Not Active | 
N[C@@H](Cc1ccc(O)cc1)C(=O)N[C@H](C(=O)O)[C@H]1[C@H](O)[C@@H](O)[C@@H](O)CN1O |  | 1.2
N[C@@H](Cc1ccc(O)cc1)C(=O)N[C@H](C(=O)O)[C@H]1OC[C@@H](O)[C@@H](O)[C@@H]1O | Not Active | 
